Laboratory results as given in US5115096A, “Amphiregulin: a bifunctional growth modulating glycoprotein” (Oncogen, priority 1989, dated 1992).
Like-named read-outs stand apart in the source and are kept apart here.

Legend:
Format in all cases: cell-based, human
[1] = system: AR RNA in MCF-7 (HTB 22) cells; assay: Northern blot of AR RNA in MCF-7 cells
Source text: c-AMP is another regulatory molecule which exerts diverse effects on cells, primarily through cAMP-dependent protein kinase A. Intracellular levels of cAMP are regulated by a combination of receptor-mediated activation and adenylate cyclase inhibition. Some studies indicate that TPA and cAMP induced gene expression may converge as a common pathway. To study the regulation of AR gene expression, we chose to look at the effect of various activators or inhibitors of both these regulatory pathways on the production of AR specific RNA in MCF-7 cells.
Forskolin is a drug which activates adenylate cyclase, resulting in increased intracellular cAMP.
Ten or twenty μg of total RNA was electrophoresed on 1.2% agarose/formaldehyde gels for Northern analysis. The agarose/formaldehyde gels were prepared in 40 mM N-morpholinopropanesulfonic acid (MOPS), pH 7.0/1 mM EDTA/10 mM sodium acetate/2/2 M deionized formaldehyde (pH5.6) in an IBI VCV gel apparatus with frosted plates. RNA was denatured in the same buffer with 50% formamide at 65° C., and run in 1×MOPS, at 20-30 mA for 3-5 hr. […] Bands were scored as (+) if clearly visible after overnight exposure, (+/-) if visible after 3 day exposure, and (++) if detectable after 6 hr. […]

[2] = system: transcription of AR in MCF-7 cells; assay: Nuclear run-off, transcription of AR; settings: in response to TPA
[3] = system: AR RNA in SK-BR-3 (HTB 30) cells; assay: Northern blot of AR RNA, tumor cell line panel; parameters: key: +: clearly visible after overnight exposure; +/-: visible after 3 day exposure; ++: detectable after 6 hr; settings: 24 hour induction with TPA
Experimental: (§1) Ten or twenty μg of total RNA was electrophoresed on 1.2% agarose/formaldehyde gels for Northern analysis. The agarose/formaldehyde gels were prepared in 40 mM N-morpholinopropanesulfonic acid (MOPS), pH 7.0/1 mM EDTA/10 mM sodium acetate/2/2 M deionized formaldehyde (pH5.6) in an IBI VCV gel apparatus with frosted plates. RNA was denatured in the same buffer with 50% formamide at 65° C., and run in 1×MOPS, at 20-30 mA for 3-5 hr. The gel was rinsed in 10×SSC for 30 min and transferred to Hybond-N membranes (Amersham), UV-crosslinked (1200 μJoules), prehybridized and hybridized in 5×SSPE (1×SSPE is 0.18 M NaCl/10 mM sodium phosphate, pH 7.7, 0.1 mM EDTA), 5×Denhardt's, 0.5% SDS, and 20 μg/ml denatured salmon sperm DNA as carrier. Hybridizations were carried out at 42° C. for 16 hr with 2×10^6 cpm/ml of the ^ 32 P-ARBP1. Blots were washed several times in 2×SSC with 0.1% SDS at room temperature followed by 1×SSC/0.1% SDS, 65° C., and exposed on Kodak X-OMAT with two Dupont Lightning Plus intensifying screens at -70° C. Bands were scored as (+) if clearly visible after overnight exposure, (+/-) if visible after 3 day exposure, and (++) if detectable after 6 hr.
(§2) A panel of tumor cell lines was tested for AR RNA levels both before and after 24 hour induction with TPA. With but a few exceptions, the only sources of detectable AR RNA were in human breast cancer lines treated with TPA.

[4] = system: AR RNA in BT-474 (HTB 20) cells; assay: Northern blot of AR RNA, tumor cell line panel; parameters: key: +: clearly visible after overnight exposure; +/-: visible after 3 day exposure; ++: detectable after 6 hr; settings: 24 hour induction with TPA
Experimental: as §1, §2

[5] = system: AR RNA in MDA-MB-157 (HTB 24) cells; assay: Northern blot of AR RNA, tumor cell line panel; parameters: key: +: clearly visible after overnight exposure; +/-: visible after 3 day exposure; ++: detectable after 6 hr; settings: 24 hour induction with TPA
Experimental: as §1, §2

[6] = system: AR RNA in HBL-100 (HTB 124) cells; assay: Northern blot of AR RNA, tumor cell line panel; parameters: key: +: clearly visible after overnight exposure; +/-: visible after 3 day exposure; ++: detectable after 6 hr; settings: 24 hour induction with TPA
Experimental: as §1, §2

[7] = system: AR RNA in MDA-MB-361 (HTB 27) cells; assay: Northern blot of AR RNA, tumor cell line panel; parameters: key: +: clearly visible after overnight exposure; +/-: visible after 3 day exposure; ++: detectable after 6 hr; settings: 24 hour induction with TPA
Experimental: as §1, §2

[8] = system: AR RNA in HUF foreskin fibroblast cells; assay: Northern blot of AR RNA, tumor cell line panel; parameters: key: +: clearly visible after overnight exposure; +/-: visible after 3 day exposure; ++: detectable after 6 hr; settings: 24 hour induction with TPA
Experimental: as §1, §2

[9] = system: AR RNA in HEPM (CRL 1486) cells; assay: Northern blot of AR RNA, tumor cell line panel; parameters: key: +: clearly visible after overnight exposure; +/-: visible after 3 day exposure; ++: detectable after 6 hr; settings: 24 hour induction with TPA
Experimental: as §1, §2

AR RNA in BT-476 cells = assay: Northern blot of AR RNA, tumor cell line panel; parameters: key: +: clearly visible after overnight exposure; +/-: visible after 3 day exposure; ++: detectable after 6 hr; settings: BT-476, 24 hour induction with TPA
Experimental: as §1, §2

[10] = system: AR RNA in JEG-3 (HTB 36) cells; assay: Northern blot of AR RNA, tumor cell line panel; parameters: key: +: clearly visible after overnight exposure; +/-: visible after 3 day exposure; ++: detectable after 6 hr; settings: 24 hour induction with TPA
Experimental: as §1, §2

[11] = system: AR 5' flanking region driving CAT gene in MCF-7 cells; assay: CAT assay, AR 5' regulatory region/CAT constructs transiently introduced into MCF-7 cells
Experimental: MCF-7 cells were grown as described in Section 6.2.1 supra. For each assay, 1-2×10^6 cells were plated in a 100 mm dish in 10 ml media, and 24 hours later, 20 μg calcium phosphate precipitated supercoiled plasmid DNA was added to the cells (Southern and Berg, 1982). The cells were rinsed with fresh media 4 hours after transfection and subjected to a 25% glycerol shock for 90 seconds. Cells were again rinsed and overlayed with 20 ml fresh media containing 0 or 100ng/ml TPA. Cells were washed and harvested 40 hours after glycerol shock and lysed by sonication in 100 μl 1 0.25 M Tris-HCl (pH 7.8). CAT activity was assayed essentially as detailed by Gorman et al. (1982). Cell extract (3-50 μl) was added to […] ^14 C-chloramphenicol (NEN), in a 150 μl reaction volume of 0.5 M Tris (pH 7.8), 0.5 mM AcetylCoA. The reactions were incubated at 37° C. for 2 hours, extracted with 1 ml ethyl acetate and developed on silica gel TLC plates with CHCl3 :1-butanol (95:5). TLC plates were dried and autoradiographed. The acetylated and unacetylated ^14 C-chloramphenicol was quantitated by counting excised spots in Optifluor. Units of CAT enzymatic activity were calculated as μg chloramphenicol acetylated per hour per μg protein in the cell extract.
Primer extension was performed on MCF-7 RNA with 2 separate oligonucleotides from exon 1. […]

MCF-7 cells = assay: Morphology and cell number of MCF-7 cells; settings: MCF-7 cells compared to untreated cells
Source text: TPA induces dramatic morphological changes in a dose-dependent manner. Following TPA treatment, MCF-7 cells lose their well defined morphology, become rounded, and spread out.

C=C[C@@]1(C)CC(=O)[C@]2(O)[C@@]3(C)[C@@H](O)CCC(C)(C)[C@@H]3[C@H](O)[C@H](OC(C)=O)[C@@]2(C)O1 [Forskolin]
AR mRNA ([1]; MCF-7 cells, 25 uM for 4 hours): marked stimulation

CCCCCCCCCCCCCC(=O)O[C@@H]1[C@@H](C)[C@@]2(O)[C@@H](C=C(CO)C[C@]3(O)C(=O)C(C)=C[C@@H]23)[C@@H]2C(C)(C)[C@]12OC(C)=O [TPA, 12-0-tetradecanoyl-phorbol-13-acetate]
increased transcription of AR [2]: 3-5 fold | AR RNA Level, TPA INDUCED [3]: + | AR RNA Level, TPA INDUCED [4]: + | AR RNA Level, TPA INDUCED [5]: ++ | AR RNA Level, TPA INDUCED [6]: + | AR RNA Level, TPA INDUCED [7]: ++ | AR RNA Level, TPA INDUCED [8]: +/- | AR RNA Level, TPA INDUCED [9]: +/- | AR RNA Level, TPA INDUCED (AR RNA in BT-476 cells): + | AR RNA Level, TPA INDUCED [10]: +/- | fold induction at 0.1 µg/mL ([11]; MCF7, 40 h, pXARE1CAT (-648 to +40) in MCF-7 cells, addition of TPA, read-out: stimulation of CAT activity): 6 to 7 | fold induction at 0.1 µg/mL ([11]; MCF7, deletion mutants E1a-E1h in MCF-7 cells, 40 hour treatment with 100 ng/ml TPA, read-out: enhanced expression of 5' CAT deletion constructs): 3.5 to 7 | effect on cell number (MCF-7 cells): dose-dependent reduction in cell number | time after treatment at which increase in the 1.4 kb AR RNA species was seen ([1]; MCF-7 cells treated with TPA for 0-48 hours): ≤ 1 h
